Measured values reported in patent publication US20210069286A1, “COMPOSITIONS AND METHODS FOR TREATING OR PREVENTING HYPERGLYCEMIA, INSULIN RESISTANCE, AND […] DAMAGE” (9 Meters Biopharma, Inc., priority 2018, published 2021).
No end group written: not given here.

How the values were obtained:
[1] = system: tight junction; test: activity as tight junction regulators; details: for activity as tight junction regulators: fragment alone
Text: See US 2016/0022760, which is hereby incorporated by reference in its entirety. […] It is believed that an aminopeptidase located within the brush borders of the lumen surface may create larazotide-derived fragments, including fragments missing N-terminal glycine residues.

[2] = system: intestinal disease symptoms; details: clinical trials, cited from earlier work

Substance	activity as tight junction regulator ([1]; fragments GVLVQPG and VLVQPG mixed with full length larazotide)	activity at reducing intestinal disease symptoms ([2]; higher doses (e.g., 1 mg and 2 mg doses))	benefit at reducing intestinal disease symptoms ([2]; lower doses (e.g., 0.5 mg dose))	activity as tight junction regulators [1]
GGVLVQPG [Larazotide]	completely abolished	attenuation of activity, or no activity at all	benefit	–
GVLVQPG [larazotide-derived fragment missing N-terminal glycine residue]	–	–	–	largely inactive
VLVQPG [larazotide-derived fragment missing N-terminal glycine residues]	–	–	–	largely inactive
